In patent US9326973B2, “Hepatitis C virus inhibitors” (priority 2012, dated 2016):

The molecules below were run on HCV replicon, genotype-1a variant with glutamine 30 changed to glutamate in the NS5A protein (assay: microbe, parasite or virus in culture). Details: HCV replicon genotype 1a Q30E (Q→E) variant; test compound titrated with an NS5A-targeting compound (BMS-790052 fixed at 200 nM); ranking of synergist activity.
Type: cell-based, HCV genotype 1a
In short: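 Synergy was assessed by combining several fixed amounts of an NS5A-targeting compound with a titration of the second compound of interest.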

| Compound | Fold-Synergistic 1a (Q30E) [fold] |
| --- | --- |
| COc1ccc2c(C(=O)N3CCC[C@H]3c3ncc(-c4ccc(-c5ccc(-c6cnc([C@@H]7CCCN7C(=O)c7nccc8cc(OC)ccc78)[nH]6)cc5)cc4)[nH]3)nccc2c1 [Compound S-198] | >100 |
| COC(=O)N[C@H](C(=O)N[C@H](c1nc(-c2ccc3cc(-c4ccc(-c5cnc([C@@H](NC(=O)[C@@H](NC(=O)OC)C(C)C)C(C)C)[nH]5)cc4)ccc3c2)c[nH]1)C(C)C)C(C)C [Compound P-1] | <10 |
| CC(C)CC(=O)N[C@@H](CC(C)C)c1nc(-c2ccc(-c3ccc(-c4c[nH]c([C@H](CC(C)C)NC(=O)CC(C)C)n4)cc3)cc2)c[nH]1 [Compound N-31] | >10 |
| C[C@H]1CCN(C(=O)C(=O)N2CCC(F)(F)CC2)C1c1nc(-c2ccc(-c3ccc(-c4c[nH]c([C@@H]5[C@@H](C)CCN5C(=O)C(=O)N5CCC(F)(F)CC5)n4)cc3)cc2)c[nH]1 (stereo partly drawn) [Compound W-187] | >100 |
| CCN(CC(F)(F)F)C(=O)C(=O)N[C@H](c1nc(-c2ccc(-c3ccc(-c4c[nH]c([C@@H](NC(=O)C(=O)N(CC)CC(F)(F)F)C5CC5)n4)cc3)cc2)c[nH]1)C1CC1 [Compound L-35] | >100 |
| CC(C)[C@H](NC(=O)C(C)(C)F)c1nc(-c2ccc(-c3ccc(-c4c[nH]c([C@@H](NC(=O)C(C)(C)F)C(C)C)n4)cc3F)cc2)c[nH]1 [Compound N-97] | >100 |
| C=C[C@H]1C[C@@]1(NC(=O)OC(C)(C)C)C(=O)N[C@H](c1nc(-c2ccc(-c3ccc(-c4c[nH]c([C@@H](NC(=O)[C@]5(NC(=O)OC(C)(C)C)C[C@@H]5C=C)C(C)(C)C)n4)cc3)cc2)c[nH]1)C(C)(C)C [Compound W-4] | >100 |
| CC(C)(C)[C@H](NC(=O)C(F)(F)C1(O)CCCCC1)c1nc(-c2ccc(-c3ccc(-c4c[nH]c([C@@H](NC(=O)C(F)(F)C5(O)CCCCC5)C(C)(C)C)n4)cc3)cc2)c[nH]1 [Compound P-159] | >100 |
| COC(C)(C)[C@H](NC(=O)C(C)(C)CF)c1nc(-c2ccc(-c3ccc(-c4c[nH]c([C@@H](NC(=O)C(C)(C)CF)C(C)(C)OC)n4)cc3)cc2)c[nH]1 [Compound P-10] | >100 |
| COC(=O)N[C@@H](C(=O)NC1(c2nc(-c3ccc(-c4ccc(-c5c[nH]c(C6(NC(=O)[C@H](NC(=O)OC)C(C)C)CCCCC6)n5)cc4)cc3)c[nH]2)CCCCC1)C(C)C [Compound N-22] | >10 |
| CC(C)(C)[C@H](NC(=O)C1(CF)CCCO1)c1nc(-c2ccc(-c3ccc(-c4c[nH]c([C@@H](NC(=O)C5(CF)CCCO5)C(C)(C)C)n4)cc3)cc2)c[nH]1 (stereo partly drawn) [Compound P-161] | >100 |
| CC(C)(C)OC(=O)N[C@]1(C(=O)N[C@H](c2nc(-c3ccc(-c4ccc(-c5c[nH]c([C@@H](NC(=O)[C@@]6(NC(=O)OC(C)(C)C)C[C@H]6c6ccccc6)C(C)(C)C)n5)cc4)cc3)c[nH]2)C(C)(C)C)C[C@H]1c1ccccc1 [Compound W-8] | >100 |
| CC(C)(C)[C@H](NC(=O)[C@@H]1C[C@@H](F)CN1C(=O)C1CC1)c1nc(-c2ccc(-c3ccc(-c4c[nH]c([C@@H](NC(=O)[C@@H]5C[C@@H](F)CN5C(=O)C5CC5)C(C)(C)C)n4)cc3)cc2)c[nH]1 [Compound W-104] | >100 |
| CCC(C)CC(=O)N1CCC[C@H]1c1ncc(-c2ccc(-c3ccc(-c4cnc([C@@H]5CCCN5C(=O)CC(C)CC)[nH]4)cc3)cc2)[nH]1 (stereo partly drawn) [Compound S-172] | >10 |
| CC(C)(C)OC(=O)N1CCCC[C@@H]1C(=O)N[C@H](c1nc(-c2ccc(-c3ccc(-c4c[nH]c([C@@H](NC(=O)[C@H]5CCCCN5C(=O)OC(C)(C)C)C(C)(C)C)n4)cc3)cc2)c[nH]1)C(C)(C)C [Compound L-16] | >100 |
| O=C(c1cnc2n(c1=O)CCS2)N1CCC[C@H]1c1ncc(-c2ccc(-c3ccc(-c4cnc([C@@H]5CCCN5C(=O)c5cnc6n(c5=O)CCS6)[nH]4)cc3)cc2)[nH]1 [Compound S-135] | <10 |
| COC(C)(C)C(=O)N[C@H](c1nc(-c2ccc(-c3ccc(-c4c[nH]c([C@@H](NC(=O)C(C)(C)OC)C(C)(C)C)n4)c(C)c3)cc2)c[nH]1)C(C)(C)C [Compound N-85] | >100 |
| CC(C)(C)[C@H](NC(=O)C(F)(F)C(O)c1cccnc1)c1nc(-c2ccc(-c3ccc(-c4c[nH]c([C@@H](NC(=O)C(F)(F)C(O)c5cccnc5)C(C)(C)C)n4)cc3)cc2)c[nH]1 (stereo partly drawn) [Compound S-283] | >100 |
| CCN(CCOC)C(=O)C(C)(C)C(=O)N[C@H](c1nc(-c2ccc(-c3ccc(-c4c[nH]c([C@@H](NC(=O)C(C)(C)C(=O)N(CC)CCOC)C(C)(C)C)n4)cc3)cc2)c[nH]1)C(C)(C)C [Compound W-157] | >10 |
| CC(C)[C@H](NC(=O)C(C)(C)C)c1nc(-c2ccc(-c3ccc(-c4c[nH]c([C@@H](NC(=O)C(C)(C)C)C(C)C)n4)c(F)c3)cc2)c[nH]1 [Compound N-89] | >100 |

| Compound | Fold-Synergistic 1a (Q30E) [fold] |
| --- | --- |
| CC(C)(C)[C@H](NC(=O)C(=O)N1CCC(C(F)(F)F)CC1)c1nc(-c2ccc(-c3ccc(-c4c[nH]c([C@@H](NC(=O)C(=O)N5CCC(C(F)(F)F)CC5)C(C)(C)C)n4)cc3)cc2)c[nH]1 [Compound W-60] | >100 |
| CC1([C@H](NC(=O)C2CC(=O)C2)c2nc(-c3ccc(-c4ccc(-c5c[nH]c([C@@H](NC(=O)C6CC(=O)C6)C6(C)CC6)n5)cc4)cc3)c[nH]2)CC1 [Compound W-174] | >100 |
| CC(C)(C)[C@H](NC(=O)[C@@H]1CCC(=O)N1)c1nc(-c2ccc(-c3ccc(-c4c[nH]c([C@@H](NC(=O)[C@@H]5CCC(=O)N5)C(C)(C)C)n4)cc3)cc2)c[nH]1 [Compound L-10] | >10 |
| C[C@H](C(=O)OC(C)(C)C)[C@@H](C)C(=O)N[C@H](c1nc(-c2ccc(-c3ccc(-c4c[nH]c([C@@H](NC(=O)[C@H](C)[C@H](C)C(=O)OC(C)(C)C)C(C)(C)C)n4)cc3)cc2)c[nH]1)C(C)(C)C [Compound S-292] | >100 |
| CC(C)(C)[C@H](NC(=O)[C@@]1(C)C[C@H]2CC(F)(F)C[C@H]2C1)c1nc(-c2ccc(-c3ccc(-c4c[nH]c([C@@H](NC(=O)[C@@]5(C)C[C@H]6CC(F)(F)C[C@H]6C5)C(C)(C)C)n4)cc3)cc2)c[nH]1 [Compound P-152] | >100 |
| CC(C)(C)[C@H](NC(=O)C(C)(O)C(F)(F)F)c1nc(-c2ccc(-c3ccc(-c4c[nH]c([C@@H](NC(=O)C(C)(O)C(F)(F)F)C(C)(C)C)n4)cc3)cc2)c[nH]1 (stereo partly drawn) [Compound L-66a] | >100 |
| CC(C)(C)[C@H](NC(=O)C1(CO)CCCCO1)c1nc(-c2ccc(-c3ccc(-c4c[nH]c([C@@H](NC(=O)C5(CO)CCCCO5)C(C)(C)C)n4)cc3)cc2)c[nH]1 (stereo partly drawn) [Compound P-182] | >100 |
| COCC1(C(=O)N[C@H](c2nc(-c3ccc(-c4ccc(-c5c[nH]c([C@@H](NC(=O)C6(COC)CCCCO6)C(C)(C)C)n5)cc4)cc3)c[nH]2)C(C)(C)C)CCCCO1 (stereo partly drawn) [Compound P-183] | >100 |
| C[C@@H](OC(=O)N(C)C1(C(=O)N[C@H](c2nc(-c3ccc(-c4ccc(-c5c[nH]c([C@@H](NC(=O)C6(N(C)C(=O)O[C@H](C)C(F)(F)F)CC6)C(C)(C)C)n5)cc4)cc3)c[nH]2)C(C)(C)C)CC1)C(F)(F)F [Compound L-44] | >100 |
| COc1ccc(CNC(C)(C)C(=O)N[C@H](c2nc(-c3ccc(-c4ccc(-c5c[nH]c([C@@H](NC(=O)C(C)(C)NCc6ccc(OC)cc6)C(C)(C)C)n5)cc4)cc3)c[nH]2)C(C)(C)C)cc1 [Compound S-267] | >100 |
| O=C(c1cc2ccccc2o1)N1CCC[C@H]1c1ncc(-c2ccc(-c3ccc(-c4cnc([C@@H]5CCCN5C(=O)c5cc6ccccc6o5)[nH]4)cc3)cc2)[nH]1 [Compound S-122] | >10 |
| CC(C)(C(=O)N[C@H](c1nc(-c2ccc(-c3ccc(-c4c[nH]c([C@@H](NC(=O)C(C)(C)C5(O)CCC(F)(F)CC5)C5CC5)n4)cc3)cc2)c[nH]1)C1CC1)C1(O)CCC(F)(F)CC1 [Compound L-91] | >100 |
| COC(=O)N[C@@H](C(=O)N[C@@H](CC(C)C)c1nc(-c2ccc(-c3ccc(-c4c[nH]c([C@H](CC(C)C)NC(=O)[C@H](NC(=O)OC)C(C)C)n4)cc3)cc2)c[nH]1)C(C)C [Compound N-29] | >10 |
| CC(C)(C(=O)N[C@H](c1nc(-c2ccc(-c3ccc(-c4c[nH]c([C@@H](NC(=O)C(C)(C)C(=O)NC56CC(C5)C6)C(C)(C)C)n4)cc3)cc2)c[nH]1)C(C)(C)C)C(=O)NC12CC(C1)C2 [Compound W-155] | >100 |
| CC(C)(C)[C@H](NC(=O)C1(CO)CCCCO1)c1nc(-c2ccc(-c3ccc(-c4c[nH]c([C@@H](NC(=O)C5(CO)CCCCO5)C(C)(C)C)n4)cc3)cc2)c[nH]1 (stereo partly drawn) [Compound P-180] | >100 |
| COC(=O)N[C@@H](C(=O)NC1(c2nc(-c3ccc(-c4ccc(-c5c[nH]c(C6(NC(=O)[C@H](NC(=O)OC)C(C)C)CC=CC6)n5)cc4)cc3)c[nH]2)CC=CC1)C(C)C [Compound N-14] | <10 |
| O=C(CC1CCCC1)N1CCC[C@H]1c1ncc(-c2ccc(-c3ccc(-c4cnc([C@@H]5CCCN5C(=O)CC5CCCC5)[nH]4)cc3)cc2)[nH]1 [Compound S-165] | >10 |
| CC(C)(C)[C@H](NC(=O)[C@@H]1C[C@@H](F)CN1C(=O)OCCF)c1nc(-c2ccc(-c3ccc(-c4c[nH]c([C@@H](NC(=O)[C@@H]5C[C@@H](F)CN5C(=O)OCCF)C(C)(C)C)n4)cc3)cc2)c[nH]1 [Compound W-108] | >100 |
| CC(C)(C)[C@H](NC(=O)C(O)(C1CC1)C1CC1)c1nc(-c2ccc(-c3ccc(-c4c[nH]c([C@@H](NC(=O)C(O)(C5CC5)C5CC5)C(C)(C)C)n4)cc3)cc2)c[nH]1 [Compound P-169] | >100 |
